Measured values: patent EP0240391A1, “Silver salt derived from naphthyridine, useful as a bactericide, process for its preparation and compositions containing it” (EDMOND PHARMA S.R.L., priority 1986, dated 1987)

How the values were obtained:
[1] = system: Escherichia coli; assay: In vitro antibacterial activity, MIC (CMI) by agar dilution method; type: cell-based; conditions: 5 strains
Description: (§1) Pour l'évaluation des activités antibactérienne et antifongique ont été testées 24 souches de bactéries et 11 de champignons isolées de matériel pathologique humain récent ou provenant de collections internationales, ainsi subdivisées :
(§2) Pour l'activité in vitro on a déterminé la CMI par la méthode des dilutions (milieu agar) selon la technique classique.
(§3) La solution mère des produits à tester (composé de formule I et acide libre de départ) a été préparée par dissolution dans le diméthylsulfoxyde et addition d'eau distillée dans le rapport 1 : 1O. Les solutions ultérieures ont été préparées par dilution avec de l'eau distillée ou avec le terrain minimum essential d'Eagle contenant 3 % de serum de veau.
(§4) Les concentrations ont été exprimées en µg de substance active, calculée comme acide libre, par ml de milieu.
(§5) Le tableau I montre l'activité antibactérienne in vitro du sel d'argent de formule I ci-dessus (Composé I) et de l'acide libre correspondant (Acide libre), exprimée par le nombre de souches sensibles aux produits testés à des concentrations de 3O à O,O1 µg/ml.

[2] = system: Staphylococcus aureus; assay: as above; type: cell-based; conditions: 4 strains
Description: as §1, §2, §3, §4, §5

[3] = system: Streptococcus epidermidis; assay: as above; type: cell-based; conditions: 3 strains
Description: as §1, §2, §3, §4, §5

[4] = system: Pseudomonas aeruginosa; assay: as above; type: cell-based; conditions: 4 strains
Description: as §1, §2, §3, §4, §5

[5] = system: Streptococcus faecalis; assay: as above; type: cell-based; conditions: 2 strains
Description: as §1, §2, §3, §4, §5

[6] = system: Staphylococcus aureus (pen. rés.); assay: as above; type: cell-based; conditions: 2 penicillin-resistant strains
Description: as §1, §2, §3, §4, §5

[7] = system: Streptococcus pyogenes; assay: as above; type: cell-based; conditions: 4 strains
Description: as §1, §2, §3, §4, §5

[8] = system: Trichophyton mentagrophytes; assay: In vitro antifungal activity, MIC (CMI) by agar dilution method; type: cell-based; conditions: for nombre de souches sensibles aux concentrations suivantes (en µg/ml): 4 strains
Description: as §1, §2, §3, §4

[9] = system: Candida albicans; assay: as above; type: cell-based; conditions: for nombre de souches sensibles aux concentrations suivantes (en µg/ml): 5 strains
Description: as §1, §2, §3, §4

[10] = system: Trichophyton rubrum; assay: as above; type: cell-based; conditions: for nombre de souches sensibles aux concentrations suivantes (en µg/ml): 2 strains
Description: as §1, §2, §3, §4

[11] = Photosensitivity compared with other antibacterial silver salts; type: physicochemical; conditions: e.g. sel d'argent de la sulfadiazine, solid state and in solution
[12] = compared with the corresponding free acid; from European patent 49593; cited from earlier work

For `CCn1cc(C(=O)O)c(=O)c2cc(F)c(N3CCNCC3)nc21` [Acide libre, acide 1-éthyl-6-fluoro-1,4-dihydro-4-oxo-7-(1-pipérazinyl)-1,8-naphtyridine-3-carboxylique, reference compound], the “Nombre de souches sensibles aux concentrations suivantes (µg/ml)” value ([1]; 0,1 µg/ml (as free acid)) was 2, the “Nombre de souches sensibles aux concentrations suivantes (µg/ml)” value ([1]; 0,03 µg/ml (as free acid)) was 1 and the “Nombre de souches sensibles aux concentrations suivantes (µg/ml)” value ([1]; 0,3 µg/ml (as free acid)) was 2. The “Nombre de souches sensibles aux concentrations suivantes (µg/ml)” value ([2]; 0,1 µg/ml (as free acid)) was 1, the “Nombre de souches sensibles aux concentrations suivantes (µg/ml)” value ([2]; 1 µg/ml (as free acid)) was 2 and the “Nombre de souches sensibles aux concentrations suivantes (µg/ml)” value ([3]; 3 µg/ml (as free acid)) was 2. For the same compound, the “Nombre de souches sensibles aux concentrations suivantes (µg/ml)” value ([3]; 10 µg/ml (as free acid)) was 1, the “Nombre de souches sensibles aux concentrations suivantes (µg/ml)” value ([4]; 0,3 µg/ml (as free acid)) was 3 and the “Nombre de souches sensibles aux concentrations suivantes (µg/ml)” value ([4]; 1 µg/ml (as free acid)) was 1. For the same compound, the “Nombre de souches sensibles aux concentrations suivantes (µg/ml)” value ([5]; 10 µg/ml (as free acid)) was 1, the “Nombre de souches sensibles aux concentrations suivantes (µg/ml)” value ([5]; 30 µg/ml (as free acid)) was 1 and the “Nombre de souches sensibles aux concentrations suivantes (µg/ml)” value ([6]; 0,3 µg/ml (as free acid)) was 1. The “Nombre de souches sensibles aux concentrations suivantes (µg/ml)” value ([6]; 1 µg/ml (as free acid)) was 1, the “Nombre de souches sensibles aux concentrations suivantes (µg/ml)” value ([7]; 1 µg/ml (as free acid)) was 1 and the “Nombre de souches sensibles aux concentrations suivantes (µg/ml)” value ([7]; 3 µg/ml (as free acid)) was 1. The “Nombre de souches sensibles aux concentrations suivantes (µg/ml)” value ([7]; 10 µg/ml (as free acid)) was 2, the MIC ([8]; Trichophyton mentagrophytes, same 4 strains as Table II, read-out: activité antifongique: inactif jusqu'à des concentrations de) was over 1 µg/mL and the MIC ([9]; Candida albicans, same 5 strains as Table II, read-out: activité antifongique: inactif jusqu'à des concentrations de) was over 1 µg/mL. The MIC ([10]; Trichophyton rubrum, same 2 strains as Table II, read-out: activité antifongique: inactif jusqu'à des concentrations de) was over 1 µg/mL.

In the case of “sel d'argent de l'acide 1-éthyl-6-fluoro-1,4-dihydro-4-oxo-7-(1-pipérazinyl)-1,8-naphtyridine-3-carboxylique [Composé I]”, the “Nombre de souches sensibles aux concentrations suivantes (µg/ml)” value ([1]; 0,1 µg/ml (as free acid)) is reported as 2, the “Nombre de souches sensibles aux concentrations suivantes (µg/ml)” value ([1]; 0,03 µg/ml (as free acid)) is reported as 1 and the “Nombre de souches sensibles aux concentrations suivantes (µg/ml)” value ([1]; 0,3 µg/ml (as free acid)) is reported as 2. The “Nombre de souches sensibles aux concentrations suivantes (µg/ml)” value ([2]; 0,1 µg/ml (as free acid)) was 3, the “Nombre de souches sensibles aux concentrations suivantes (µg/ml)” value ([2]; 0,3 µg/ml (as free acid)) was 1 and the “Nombre de souches sensibles aux concentrations suivantes (µg/ml)” value ([3]; 0,3 µg/ml (as free acid)) was 1. For the same compound, the “Nombre de souches sensibles aux concentrations suivantes (µg/ml)” value ([3]; 1 µg/ml (as free acid)) was 1, the “Nombre de souches sensibles aux concentrations suivantes (µg/ml)” value ([3]; 3 µg/ml (as free acid)) was 1 and the “Nombre de souches sensibles aux concentrations suivantes (µg/ml)” value ([4]; 0,1 µg/ml (as free acid)) was 3. For the same compound, the “Nombre de souches sensibles aux concentrations suivantes (µg/ml)” value ([4]; 0,03 µg/ml (as free acid)) was 1, the “Nombre de souches sensibles aux concentrations suivantes (µg/ml)” value ([5]; 1 µg/ml (as free acid)) was 1 and the “Nombre de souches sensibles aux concentrations suivantes (µg/ml)” value ([5]; 3 µg/ml (as free acid)) was 1. The “Nombre de souches sensibles aux concentrations suivantes (µg/ml)” value ([6]; 0,1 µg/ml (as free acid)) was 1, the “Nombre de souches sensibles aux concentrations suivantes (µg/ml)” value ([6]; 0,3 µg/ml (as free acid)) was 1 and the “Nombre de souches sensibles aux concentrations suivantes (µg/ml)” value ([7]; 1 µg/ml (as free acid)) was 1. The “Nombre de souches sensibles aux concentrations suivantes (µg/ml)” value ([7]; 3 µg/ml (as free acid)) was 2, the “Nombre de souches sensibles aux concentrations suivantes (µg/ml)” value ([7]; 10 µg/ml (as free acid)) was 1 and the “nombre de souches sensibles aux concentrations suivantes (en µg/ml)” value ([8]; 3 µg/ml (as free acid)) was 1. For the same compound, the “nombre de souches sensibles aux concentrations suivantes (en µg/ml)” value ([8]; 10 µg/ml (as free acid)) was 2, the “nombre de souches sensibles aux concentrations suivantes (en µg/ml)” value ([8]; 30 µg/ml (as free acid)) was 1 and the “nombre de souches sensibles aux concentrations suivantes (en µg/ml)” value ([9]; 3 µg/ml (as free acid)) was 1. The “nombre de souches sensibles aux concentrations suivantes (en µg/ml)” value ([9]; 10 µg/ml (as free acid)) was 3, the “nombre de souches sensibles aux concentrations suivantes (en µg/ml)” value ([9]; 30 µg/ml (as free acid)) was 1 and the “nombre de souches sensibles aux concentrations suivantes (en µg/ml)” value ([10]; 10 µg/ml (as free acid)) was 1. The “nombre de souches sensibles aux concentrations suivantes (en µg/ml)” value ([10]; 30 µg/ml (as free acid)) was 1 and the photosensibilité [11] was “moins photosensible”.

For “sel d'argent de l'acide 1-éthyl-6-fluoro-1,4-dihydro-4-oxo-7-(1-pipérazinyl)-quinolinyl-3-carboxilique”, the “activité antibactérienne” value [12] is given as “du même ordre que celle de l'acide libre correspondant”.
